# Columns and labels:
# [1] = system: SKBR3 (PI3Kα-Wild Type) cell line; experiment: HTRF phospho-AKT(S473) cell assay in SKBR3 cells; format: cell-based, human
# Summary of the method: (§1)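 T47D (PI3Kα-H1047R; RPMI, 10% FBS, insulin) and SKBR3 (wild-type PI3Kα; McCoy's 5A, 10% FBS) cells treated 2 h at 37 °C with 12-point 1:3 dilutions, top 5 μM and 10 μM respectively, ≤0.5% DMSO. SKBR3 stimulated with 70 ng/ml PDGF-BB for the last 15 min; lysate pAKT(S473) by HTRF, IC50 from curves.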
# [2] = system: T47D (PI3Kα-H1047R) cell line; experiment: HTRF phospho-AKT(S473) cell assay in T47D cells; format: cell-based, human
# Summary of the method: as §1
# [3] = Homo sapiens, SK-BR-3; HTRF phospho-AKT(S473), SKBR3 (PI3Kα-Wild Type) cells, 2 hours compound incubation, PDGF-BB stimulated
# [4] = Homo sapiens; HTRF phospho-AKT(S473), T47D (PI3Kα-H1047R) cells, 2 hours compound incubation
# [5] = Homo sapiens, SK-BR-3; SKBR3 (PI3Kα-Wild Type) cells, HTRF phospho-AKT(S473), 2 hours compound incubation, PDGF-BB stimulated
# [6] = Homo sapiens; T47D (PI3Kα-H1047R) cells, HTRF phospho-AKT(S473), 2 hours compound incubation
SMILES,"IC50 [1, 3] [nM]","IC50 [2, 4] [nM]","IC50 [1, 5] [nM]","IC50 [2, 6] [nM]"
"Cc1cc([C@@H](C)Nc2ccc(Cl)nc2C(=O)NS(C)(=O)=O)c2nc(N3C[C@H]4C[C@@H]3CN4c3ccc(N)cn3)n(C)c(=O)c2c1 [Compound 597, 3-(((R)-1-(2-((1R,4R)-5-(5-aminopyridin-2-yl)-2,5-diazabicyclo [2.2.1]heptan-2-yl)-3,6-dimethyl-4-oxo-3,4-dihydroquinazolin-8-yl)ethyl)amino)-6-chloro-N-(methylsulfonyl) picolinamide]",≥ 5000,1000 to 5000,–,–
"Cc1cc([C@@H](C)Nc2ccc(Cl)nc2C(=O)NS(C)(=O)=O)c2nc(C3CCN(c4ccccc4)CC3)n(C)c(=O)c2c1 [Compound 831, (R)-6-chloro-3-((1-(3,6-dimethyl-4-oxo-2-(1-phenylpiperidin-4-yl)-3,4-dihydroquinazolin-8-yl)ethyl)amino)-N-(methylsulfonyl) picolinamide]",1000 to 5000,250 to 500,–,–
"Cc1cc([C@@H](C)Nc2ccc(Cl)nc2C(=O)NS(C)(=O)=O)c2nc(N3[C@@H]4CC[C@H]3C[C@H](c3cnc(C)nc3)C4)n(C)c(=O)c2c1 [Compound 300, 6-chloro-3-(((R)-1-(3,6-dimethyl-2-((1R,3S,5S)-3-(2-methylpyrimidin-5-yl)-8-azabicyclo[3.2.1]octan-8-yl)-4-oxo-3,4-dihydroquinazolin-8-yl)ethyl)amino)-N-(methylsulfonyl) picolinamide]",–,–,≥ 5000,< 250
"Cc1cc([C@@H](C)Nc2ccc(Cl)nc2C(=O)NS(C)(=O)=O)c2nc(N3C[C@H]4C[C@@]4(c4cnc(C)nc4)C3)n(C)c(=O)c2c1 (relative stereo) [Compound 751, 6-chloro-3-(((R)-1-(3,6-dimethyl-2-((1R*,5S*)-1-(2-methylpyrimidin-5-yl)-3-azabicyclo[3.1.0]hexan-3-yl)-4-oxo-3,4-dihydroquinazolin-8-yl)ethyl)amino)-N-(methylsulfonyl) picolinamide]",≥ 5000,250 to 500,–,–
"Cc1cc([C@@H](C)Nc2ccc(Cl)nc2C(=O)NS(C)(=O)=O)c2nc(N3CCC(c4ncc(F)cn4)CC3)n(C)c(=O)c2c1 [Compound 486, (R)-6-chloro-3-((1-(2-(4-(5-fluoropyrimidin-2-yl)piperidin-1-yl)-3,6-dimethyl-4-oxo-3,4-dihydroquinazolin-8-yl)ethyl)amino)-N-(methylsulfonyl) picolinamide]",1000 to 5000,< 250,–,–
"Cc1cc([C@@H](C)Nc2ccc(Cl)nc2C(=O)NS(C)(=O)=O)c2nc(N3CCC(n4cc(C#N)cn4)CC3)n(C)c(=O)c2c1 [Compound 686, (R)-6-chloro-3-((1-(2-(4-(4-cyano-1H-pyrazol-1-yl)piperidin-1-yl)-3,6-dimethyl-4-oxo-3,4-dihydroquinazolin-8-yl)ethyl)amino)-N-(methylsulfonyl) picolinamide]",250 to 500,< 250,–,–
"Cc1cc([C@@H](C)Nc2ccc(Cl)nc2C(=O)NS(C)(=O)=O)c2nc(N3C[C@H]4C[C@@H]3CN4c3nc(C)ncc3F)n(C)c(=O)c2c1 [Compound 605, 6-chloro-3-(((R)-1-(2-((1R,4R)-5-(5-fluoro-2-methylpyrimidin-4-yl)-2,5-diazabicyclo [2.2.1]heptan-2-yl)-3,6-dimethyl-4-oxo-3,4-dihydroquinazolin-8-yl)ethyl)amino)-N-(methylsulfonyl) picolinamide]",≥ 5000,250 to 500,–,–
"Cc1cc([C@@H](C)Nc2ccc(Cl)nc2C(=O)NS(C)(=O)=O)c2nc(N3CCC(C)(c4ccnn4C)CC3)n(C)c(=O)c2c1 [Compound 302, (R)-6-chloro-3-((1-(3,6-dimethyl-2-(4-methyl-4-(1-methyl-1H-pyrazol-5-yl)piperidin-1-yl)-4-oxo-3,4-dihydroquinazolin-8-yl)ethyl)amino)-N-(methylsulfonyl) picolinamide]",–,–,1000 to 5000,< 250
"COC(=O)NS(=O)(=O)c1nc(Cl)ccc1N[C@H](C)c1cc(C)cc2c(=O)n(C)c(N3Cc4ccc(F)cc4C3)nc12 [Compound 131, methyl (R)-((6-chloro-3-((1-(2-(5-fluoroisoindolin-2-yl)-3,6-dimethyl-4-oxo-3,4-dihydroquinazolin-yl)ethyl)amino)pyridin-2-yl)sulfonyl) carbamate]",–,–,≥ 5000,500 to 1000
"Cc1cnc(O[C@@H]2CCN(c3nc4c([C@@H](C)Nc5ccc(Cl)nc5C(=O)NS(C)(=O)=O)cc(C)cc4c(=O)n3C)C2)nc1 [Compound 613, 6-chloro-3-(((R)-1-(3,6-dimethyl-2-((R)-3-((5-methylpyrimidin-2-yl)oxy)pyrrolidin-1-yl)-4-oxo-3,4-dihydroquinazolin-8-yl)ethyl)amino)-N-(methylsulfonyl) picolinamide]",1000 to 5000,< 250,–,–
"Cc1cc([C@@H](C)Nc2ccc(Cl)nc2C(=O)NS(C)(=O)=O)c2nc(N3CCC(c4ccc(C)nn4)CC3)n(C)c(=O)c2c1 [Compound 264, (R)-6-chloro-3-((1-(3,6-dimethyl-2-(4-(6-methylpyridazin-3-yl)piperidin-1-yl)-4-oxo-3,4-dihydroquinazolin-8-yl)ethyl)amino)-N-(methylsulfonyl) picolinamide]",–,–,1000 to 5000,< 250
"Cc1cc([C@@H](C)Nc2ccc(Cl)nc2C(=O)NS(C)(=O)=O)c2nc(N3C[C@H]4C[C@@H]3CN4c3ccc(C#N)cn3)n(C)c(=O)c2c1 [Compound 601, 6-chloro-3-(((R)-1-(2-((1R,4R)-5-(5-cyanopyridin-2-yl)-2,5-diazabicyclo [2.2.1]heptan-2-yl)-3,6-dimethyl-4-oxo-3,4-dihydroquinazolin-8-yl)ethyl)amino)-N-(methylsulfonyl) picolinamide]",1000 to 5000,250 to 500,–,–
"Cc1cc([C@@H](C)Nc2ccc(Cl)nc2C(=O)NS(C)(=O)=O)c2nc(N3CCN(c4cnccn4)CC3)n(C)c(=O)c2c1 [Compound 714, (R)-6-chloro-3-((1-(3,6-dimethyl-4-oxo-2-(4-(pyrazin-2-yl)piperazin-1-yl)-3,4-dihydroquinazolin-8-yl)ethyl)amino)-N-(methylsulfonyl) picolinamide]",1000 to 5000,< 250,–,–
"Cc1cc([C@@H](C)Nc2ccc(Cl)nc2C(=O)NS(C)(=O)=O)c2nc(N3CCC(c4nn(C)nc4C)CC3)n(C)c(=O)c2c1 [Compound 506, (R)-6-chloro-3-((1-(2-(4-(2,5-dimethyl-2H-1,2,3-triazol-4-yl)piperidin-1-yl)-3,6-dimethyl-4-oxo-3,4-dihydroquinazolin-8-yl)ethyl)amino)-N-(methylsulfonyl) picolinamide]",1000 to 5000,< 250,–,–
"Cc1cc([C@@H](C)Nc2ccc(Cl)nc2C(=O)NS(C)(=O)=O)c2nc(N3C[C@@H]4[C@H](C3)[C@H]4c3nc(C)nn3C(F)F)n(C)c(=O)c2c1 [Compound 643, 6-chloro-3-(((R)-1-(2-((1R,5S,6R)-6-(1-(difluoromethyl)-3-methyl-1H-1,2,4-triazol-5-yl)-3-azabicyclo[3.1.0]hexan-3-yl)-3,6-dimethyl-4-oxo-3,4-dihydroquinazolin-8-yl)ethyl)amino)-N-(methylsulfonyl) picolinamide]",≥ 5000,250 to 500,–,–
"Cc1cc([C@@H](C)Nc2ccc(Cl)nc2C(=O)NS(C)(=O)=O)c2nc(N3CCC(c4cn[nH]c4)CC3)n(C)c(=O)c2c1 [Compound 167, (R)-3-((1-(2-(4-(1H-pyrazol-4-yl)piperidin-1-yl)-3,6-dimethyl-4-oxo-3,4-dihydroquinazolin-8-yl)ethyl)amino)-6-chloro-N-(methylsulfonyl) picolinamide]",–,–,1000 to 5000,< 250

# From patent US12281122B1, “PI3K inhibitors” (Cogent Biosciences, Inc., priority 2023, dated 2025)
